“And” between values parts separate entries of the source, which are not always exact repeats. Equal entries are not always repeated. Structures can show the parent of a compound that is named as a salt.
Experiments:
[1] = test system: SH-SY5Y cells treated with extracellular Aβ42; assay: MTT assay of cell viability in the presence of extracellular Aβ42; format: cell-based; settings: for cell viability (MTT): hydrochloride
Description: The compound and target peptide were added simultaneously and incubated at 37° C. followed by cellular viability measurement using MTT assay. […] Data are represented as mean percentage viability, with no treatment controls set as 100%, n=3 and the error bars represent standard error.
The MTT assay provides a colorimetric analysis of cell viability by the conversion of MTT into formazan product by the mitochondrial enzyme succinate dehydrogenase. For cytotoxicity experiments cells were washed twice with Dulbecco's PBS followed by trypsinisation of cells, centrifugation at 1800 rpm and seeding the cells on 96 well flat bottom plates (Costar) in Opti-MEM media without phenol red supplemented with 1.5% FCS, 1% L-glutamine, 1% Penicillin-streptomycin (P/S) and 1% non essential amino acids (NEAA).
The cells were seeded at 1×10^5/ml density in a 96 well flat bottom plate (Costar) and incubated for 24 hr in a humidified incubator at 37° C. with 5% CO2.
After 24 hr; 50 μl of the media was removed and 10 μl of MTT (2.5 mg/ml) was added to the cells. This was followed by incubation for further 4 hr at 37° C. and 5% CO2. MTT reduction was characterized by adding 100 μl solubilization solution containing 50 ml isopropyl alcohol and 197 μl of 37% HCl. The cytotoxicity was determined by measuring the absorbance at 570 nm using Polarstar BMG labtech plate reader.
For the MTT cytotoxicity assay, A-77636 was diluted in the Opti-MEM media supplemented with 1.5% FCS, 1% P/S, 1% L-glutamine and 1% NEAA. The target compound was added to the SH-SY5Y cells at concentrations of 100 μM, 10 μM, 1 μM, 100 nM, 10 nM and 1 nM.
The cells were seeded at 1×10^5/ml density in a 96 well flat bottom plate (Costar) and incubated for 24 hr in a humidified incubator at 37° C. with 5% CO2. […] The cells were then incubated for 24 hr in the humidified incubator at 37° C. in 5% CO2.
After 24 hr; 500 of the media was removed and 10 μl of MTT (2.5 mg/ml) was added to the cells. This was followed by incubation for further 4 hr at 37° C. and 5% CO2. MTT reduction was characterized by adding 100 μl solubilization solution containing 50 ml isopropyl alcohol and 197 μl of 37% HCl. The 96 well plates were kept at room temperature for 6 hr to dissolve the formazan crystals. The cytotoxicity was determined by measuring the absorbance at 570 nm using Polarstar BMG labtech plate reader.

[2] = test system: SHSY5Y cells treated with Aβ42 (1 μM); assay: Cyto Tox-One LDH (lactate dehydrogenase) release assay; format: cell-based; settings: for LDH release: SHSY5Y cells, Exp 1-3 and Avg, hydrochloride;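 as to all read-outs here: fluorescent readout of resorufin formed from resazurin in proportion to released LDH (excitation 560 nm, emission 590 nm), with detergent-lysed dead cells taken as 100% maximal release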
Excerpt: The LDH assay provides the measure of cytotoxicity, wherein the amount of LDH released quantifies cell membrane damage, caused either by apoptosis or necrosis^13,15. The commercially available Cyto Tox-One assay (Promega; G7890) was used here which provides a fluorescent measure of LDH release, wherein the reduction of resazurin dye to resofurin is coupled through enzymatic conversion involving NADH. The generation of fluorescent dye resofurin is proportional to the amount of LDH release.
For the LDH cytotoxicity assay, A-77636 was diluted in the Opti-MEM media supplemented with 1.5% FCS, 1% P/S, 1% L-glutamine and 1% NEAA. A-77636 was added to the SHSY5Y cells at concentrations of 100 μM, 10 μM, 1 μM, 100 nM, 10 nM and 1 nM.
The cells were seeded at 1×10^5/ml density in a 96 well black, flat bottom plate (BD Biosciences) and incubated for 24 hr in a humidified incubator at 37° C. with 5% CO2. […] The final concentration of the target peptide and A-77636 within the cells was 1 μM:100 μM, 1 μM:10 μM, 1 μM:1 μM, 1 μM:100 nM, 1 μM:10 nM, and 1 μM:1 nM respectively. The cells were then incubated for 24 hr in the humidified incubator at 37° C. in 5% CO2.
After 24 hr, the 96 well plates were removed from the incubator and equilibrated at 22° C. for 30 min. The Cyto Tox-One reagent was prepared according to the manufacturer's protocol by equilibrating the substrate mix at 22° C. and thawing the assay buffer at 37° C. in a water bath. This was followed by adding 11 ml of assay buffer to each vial of substrate mix. 100 μl of Cyto Tox-One reagent was added to each well. The preparation and addition of Cyto Tox-One reagent was undertaken in the dark to avoid increased background fluorescence and stored at −20° C. until required. The cells were further incubated at 22° C. for 10 min followed by addition of stop solution to the wells in the same order as that of the Cyto Tox-One reagent to avoid increased variation in the results. The stop solution stops formation of fluorescent product resofurin. The maximum LDH release (set as 100%) for each experiment was determined by adding 2 μl of lysis solution (9% triton X 100, Promega) to the cells prior to the addition of Cyto Tox-One reagent, providing a dead cell control. […] The 96 well plates were then kept on the shaker for 10 sec and the fluorescence was measured immediately with an excitation at 560 nm and emission at 590 nm using a Polarstar BMG plate reader.

[3] = known, reference 16; cited from earlier work
[4] = test system: Parkinson's disease in animal models; settings: known, reference 9; cited from earlier work

## Br.C=CCN1CCc2c(cc(O)c(O)c2Br)[C@@H](c2ccccc2)C1 [Compound A, R(+)-6-Bromo-7,8-dihydroxy-3-allyl-1-phenyl-2,3,4,5-tetrahydro-1H-3-benzazepine hydrobromide, reference compound]
[1]; D1 receptor agonist screen, SH-SY5Y cells, Aβ42 (1 μM), 24 hr, MTT
  inhibition of Aβ42 toxicity: partial inhibition
[1]; D1 receptor agonist screen, SH-SY5Y cells, added simultaneously with Aβ42 (1 μM), 24 hr, no treatment controls = 100%, p<0.05
  cellular viability (MTT): 81%

## NC[C@@H]1O[C@H](C23CC4CC(CC(C4)C2)C3)Cc2c1ccc(O)c2O [Compound A-77636, (1R,3S) 3-(1′-adamantyl)-1-aminomethyl-3,4-dihydro-5,6-dihydroxy-1H-2-benzopyran hydrochloride]
[1]; 1 μM A-77636, 1 μM Aβ42, MTT, Table 1
  inhibition of the toxic effects of Aβ42: capable of inhibiting the toxic effects of Aβ42
[1]; A-77636 at 1 nM, SH-SY5Y cells with 1 μM Aβ42
  activity against Aβ42 toxicity in MTT assay: inactive
[1]; A-77636 at 100 μM, SH-SY5Y cells with 1 μM Aβ42
  toxicity in MTT assay: toxic
[1]; A-77636 from 10 nM to 10 μM, SH-SY5Y cells with 1 μM Aβ42
  activity against Aβ42 toxicity in MTT assay: active
[1]; SH-SY5Y cells, 1 μM Aβ42 + 1 μM A-77636, 24 hr, Aβ42 −ve cells = 100%, Experiments 1-3 and Average
  cell viability (MTT): 82% and 69% and 92%
[1]; SH-SY5Y cells, 1 μM Aβ42 + 1 μM A-77636, 24 hr, Aβ42 −ve cells = 100%, Experiments 1-3 and Average, mean
  cell viability (MTT): 81%
[1]; SHSY5Y cells, 1 μM Aβ42 + 1 nM A-77636, 24 hr, Exp 1-3 and Avg
  cell viability (MTT): 71% and 67%
[1]; SHSY5Y cells, 1 μM Aβ42 + 1 nM A-77636, 24 hr, Exp 1-3 and Avg, mean of three experiments
  cell viability (MTT): 68%
[1]; SHSY5Y cells, 1 μM Aβ42 + 10 nM A-77636, 24 hr, Exp 1-3 and Avg
  cell viability (MTT): 80% and 74% and 84%
[1]; SHSY5Y cells, 1 μM Aβ42 + 10 nM A-77636, 24 hr, Exp 1-3 and Avg, mean of three experiments
  cell viability (MTT): 79%
[1]; SHSY5Y cells, 1 μM Aβ42 + 100 nM A-77636, 24 hr, Exp 1-3 and Avg
  cell viability (MTT): 78% and 74% and 81%
[1]; SHSY5Y cells, 1 μM Aβ42 + 100 nM A-77636, 24 hr, Exp 1-3 and Avg, mean of three experiments
  cell viability (MTT): 77%
[1]; SHSY5Y cells, 1 μM Aβ42 + 1 μM A-77636, 24 hr, Exp 1-3 and Avg (Table 2)
  cell viability (MTT): 87% and 90% and 86%
[1]; SHSY5Y cells, 1 μM Aβ42 + 10 μM A-77636, 24 hr, Exp 1-3 and Avg
  cell viability (MTT): 84% and 81% and 86%
[1]; SHSY5Y cells, 1 μM Aβ42 + 10 μM A-77636, 24 hr, Exp 1-3 and Avg, mean of three experiments
  cell viability (MTT): 83%
[1]; SHSY5Y cells, 1 μM Aβ42 + 100 μM A-77636, 24 hr, Exp 1-3 and Avg
  cell viability (MTT): 9% and 4%
[1]; SHSY5Y cells, 1 μM Aβ42 + 100 μM A-77636, 24 hr, Exp 1-3 and Avg, mean of three experiments
  cell viability (MTT): 6%
[2]; A-77636 at 100 μM, 1 μM Aβ42
  toxicity in LDH assay: possibly toxic
[2]; 1 μM Aβ42 + 1 nM A-77636, 24 hr
  LDH release: 35% and 38% and 61%
[2]; 1 μM Aβ42 + 1 nM A-77636, 24 hr, mean
  LDH release: 45%
[2]; 1 μM Aβ42 + 10 nM A-77636, 24 hr
  LDH release: 35% and 39% and 56%
[2]; 1 μM Aβ42 + 10 nM A-77636, 24 hr, mean
  LDH release: 43%
[2]; 1 μM Aβ42 + 100 nM A-77636, 24 hr
  LDH release: 20% and 23% and 32%
[2]; 1 μM Aβ42 + 100 nM A-77636, 24 hr, mean
  LDH release: 25%
[2]; 1 μM Aβ42 + 1 μM A-77636, 24 hr
  LDH release: 27% and 48% and 43%
[2]; 1 μM Aβ42 + 1 μM A-77636, 24 hr, mean
  LDH release: 39%
[2]; 1 μM Aβ42 + 10 μM A-77636, 24 hr
  LDH release: 33% and 47% and 52%
[2]; 1 μM Aβ42 + 10 μM A-77636, 24 hr, mean
  LDH release: 44%
[2]; 1 μM Aβ42 + 100 μM A-77636, 24 hr, LDH max (dead cells) = 100
  LDH release: 61% and 53% and 64%
[2]; all concentrations from 100 μM to 1 nM, 1 μM Aβ42
  effect on Aβ42 toxicity in LDH assay: reduces Aβ42 toxicity
[3]
  crossing of the blood-brain barrier: cross the blood-brain barrier
[4]
  activity against Parkinson's disease in animal models: activity against Parkinson's disease
